The values that follow come from ChEMBL document CHEMBL4715778, “Sobetirome prodrug esters with enhanced blood-brain barrier permeability” (Bioorg Med Chem, 2016).

What all share (assay type): ADME, organism-based
Data set [1] in a line: Prodrug conversion in C57Bl/6 mouse brain assessed as increase in sobetirome level at 1.5 micromol/kg, ip after 30 mins by LC-MS/MS analysis relative to sobetirome control. Conditions: in vivo, 0.5 h, dose 1.5 µmol/kg.
The nature of data set [2]: AUC (0 to t) in C57Bl/6 mouse liver assessed as sobetirome level at 1.5 microM/Kg, ip upto 8 hrs by LC-MS/MS analysis. The arrangement: route intraperitoneal, dose 1.5 µM/Kg, time <=8. Conditions: in vivo.
Data set [3] in a line: Ratio of AUC (0 to t) in brain to serum in C57Bl/6 mouse assessed as sobetirome level at 1.5 microM/Kg, ip upto 8 hrs by LC-MS/MS analysis.
Data set [4] can be described thus: Ratio of AUC in brain to liver in C57Bl/6 mouse assessed as sobetirome level at 1.5 microM/Kg, ip upto 8 hrs by LC-MS/MS analysis. Conditions: in vivo.
The nature of data set [5]: AUC (0 to t) in C57Bl/6 mouse brain assessed as sobetirome level at 1.5 microM/Kg, ip upto 8 hrs by LC-MS/MS analysis. The arrangement: route intraperitoneal, dose 1.5 µM/Kg, time <=8. The conditions noted are these: in vivo.
Data set [6] is described as follows: Ratio of AUC (0 to t) in brain to liver in C57Bl/6 mouse assessed as sobetirome level at 1.5 microM/Kg, ip upto 8 hrs by LC-MS/MS analysis. The conditions noted are these: in vivo.
The nature of data set [7]: AUC (0 to t) in C57Bl/6 mouse serum assessed as sobetirome level at 1.5 microM/Kg, ip upto 8 hrs by LC-MS/MS analysis. Set-up: route intraperitoneal, dose 1.5 µM/Kg, time <=8. Conditions: in vivo.
Data set [8] is described as follows: Ratio of AUC in brain to serum in C57Bl/6 mouse assessed as sobetirome level at 1.5 microM/Kg, ip upto 8 hrs by LC-MS/MS analysis.
A short description of data set [9]: AUC (0 to t) in C57Bl/6 mouse serum at 1.5 microM/Kg, ip upto 8 hrs by LC-MS/MS analysis. Set-up: route intraperitoneal, dose 1.5 µM/Kg, time <=8. Conditions: in vivo.
The nature of data set [10]: AUC (0 to t) in C57Bl/6 mouse brain at 1.5 microM/Kg, ip upto 8 hrs by LC-MS/MS analysis. The arrangement: route intraperitoneal, dose 1.5 µM/Kg, time <=8. Conditions: in vivo.
Data set [11] is described as follows: Half life in iv dosed mouse. The conditions noted are these: in vivo.
Data set [12] can be described thus: Ratio of AUC in C57Bl/6 mouse brain to liver at 1.5 microM/Kg, ip upto 8 hrs by LC-MS/MS analysis. The conditions noted are these: in vivo.
A short description of data set [13]: Ratio of AUC in C57Bl/6 mouse brain to serum at 1.5 microM/Kg, ip upto 8 hrs by LC-MS/MS analysis. The conditions noted are these: read-out: Ratio AUC.
Data set [14] can be described thus: AUC (0 to t) in C57Bl/6 mouse liver at 1.5 microM/Kg, ip upto 8 hrs by LC-MS/MS analysis. The arrangement: route intraperitoneal, dose 1.5 µM/Kg, time <=8. Conditions: in vivo.

As to `Cc1cc(OCC(=O)OCCN)cc(C)c1Cc1ccc(O)c(C(C)C)c1.Cl`, the results for the “fold change (FC)” value in data set [1], in data set [4] and in data set [8] were 2, 4 and 7, respectively. The figures for the AUC in data set [2], in data set [5] and in data set [7] were 1897 ng·h/g, 17.1 ng·h/g and 367.8 ng·h/g, respectively. Further, the “Ratio AUC” value in data set [3] is 0.05; in data set [6], 0.009.

As for `Cc1cc(OCC(=O)OCC2CCCCN2)cc(C)c1Cc1ccc(O)c(C(C)C)c1` (stereo not given), in data set [1], the Drug metabolism result is reported as “Metabolite_Notdetected”.

For `CCOC(=O)COc1cc(C)c(Cc2ccc(O)c(C(C)C)c2)c(C)c1`, the Drug metabolism result in data set [1] is on record as “Metabolite_Notdetected”.

As for `Cc1cc(OCC(=O)OC2CN(C)C2)cc(C)c1Cc1ccc(O)c(C(C)C)c1`, the Drug metabolism entry in [1] was “Metabolite_Notdetected”.

On to `Cc1cc(OCC(=O)OC[C@H]2O[C@@H](O)[C@H](O)[C@@H](O)[C@@H]2O)cc(C)c1Cc1ccc(O)c(C(C)C)c1`, for which the Drug metabolism result in data set [1] is “Metabolite_Notdetected”.

As for `Cc1cc(OCC(=O)OC2(C)CNC2)cc(C)c1Cc1ccc(O)c(C(C)C)c1`, the Drug metabolism result in [1] is “Metabolite_Notdetected”.

As for `Cc1cc(OCC(=O)Oc2ccc(C[C@H](N)C(=O)O)cc2)cc(C)c1Cc1ccc(O)c(C(C)C)c1.Cl`, in data set [1], the Drug metabolism entry is “Metabolite_Notdetected”.

Consider `Cc1cc(OCC(=O)OCCNC(=O)[C@@H](N)CCCCN)cc(C)c1Cc1ccc(O)c(C(C)C)c1.Cl.Cl`, for which, in data set [1], the Drug metabolism result is given as “Metabolite_Notdetected”.

`Cc1cc(OCC(=O)OC2CCNCC2)cc(C)c1Cc1ccc(O)c(C(C)C)c1`: the Drug metabolism result in data set [1] is listed as “Metabolite_Notdetected”.

With `Cc1cc(OCC(=O)OC2CCCNC2)cc(C)c1Cc1ccc(O)c(C(C)C)c1` (stereo not given), the Drug metabolism entry in [1] is reported as “Metabolite_Notdetected”.

With `Cc1cc(OCC(=O)OCCN(C)C)cc(C)c1Cc1ccc(O)c(C(C)C)c1`, the Drug metabolism entry in data set [1] is recorded as “Metabolite_Notdetected”.

As for `Cc1cc(OCC(=O)OCC[N+](C)(C)C)cc(C)c1Cc1ccc(O)c(C(C)C)c1.[Br-]`, the Drug metabolism result in data set [1] is “Metabolite_Notdetected”.

In the case of `Cc1cc(OCC(=O)OCCNC(=O)[C@@H](N)C(C)C)cc(C)c1Cc1ccc(O)c(C(C)C)c1.Cl`, the Drug metabolism entry in data set [1] is on record as “Metabolite_Notdetected”.

For `Cc1cc(OCC(=O)OCCN2CCOCC2)cc(C)c1Cc1ccc(O)c(C(C)C)c1`, the Drug metabolism entry in data set [1] is “Metabolite_Notdetected”.

What is called half-life is how long it takes for the measured level to halve. In the case of `Cc1cc(OCC(=O)O)cc(C)c1Cc1ccc(O)c(C(C)C)c1` [SOBETIROME], in data set [1], the Drug metabolism result is recorded as “Metabolite_Notdetected”. In addition, the results for the AUC in data set [9], in data set [10] and in data set [14] were 681.7 ng·h/g, 10.8 ng·h/g and 2933 ng·h/g, respectively. In addition, in data set [11], the half-life was 1.3 h. The “Ratio AUC” value in [12] turned out to be 0.004. Moreover, the Kp at 8 h in [13] is 0.02.

For `Cc1cc(OCC(=O)OC2CNC2)cc(C)c1Cc1ccc(O)c(C(C)C)c1`, the Drug metabolism result in data set [1] is reported as “Metabolite_Notdetected”.

`Cc1cc(OCC(=O)OC[C@H]2CCCN2)cc(C)c1Cc1ccc(O)c(C(C)C)c1`: the Drug metabolism entry in data set [1] was “Metabolite_Notdetected”.
